Paper PMC11664589, “A Versatile “Synthesis Tag” (SynTag) for the Chemical Synthesis of Aggregating Peptides and Proteins” (Journal of the American Chemical Society, 2024)
Starred links: 1 amine or outer side, 2 acyl side, 3 side chain; linkers in the order of their positions; H or OH if unused. Non-standard residues stand in square brackets, D forms with d. Residues, ends and D or L forms follow the SMILES beside them. No end group written: not given here. X1 = C[C@H](N[*:1])C(=O)n1c(=O)n(C)c2ccc(C(=O)[*:2])cc21

Tests used:
[1] = UHPLC elution as indicator of hydrophilicity; assay type: physicochemical; conditions: standard UHPLC conditions, 214 nm; with versus without SynTag
[2] = once synthesized; cited from earlier work
Description: Amyloid-β is a biologically relevant peptide that is investigated for its role in Alzheimer’s disease (Figure 5D). The peptide is notoriously difficult to synthesize because it severely aggregates at the very beginning of the synthesis (i.e., residues 27–42).

Row | hydrophilicity by UHPLC elution / peak shape (in words) [1] | Compound | solubility (in words) [2]
1 | increased hydrophilicity | CC[C@H](C)[C@H](NC(=O)[C@H](C)NC(=O)CNC(=O)[C@@H](N)CCCCN)C(=O)N[C@H](C(=O)NCC(=O)N[C@@H](CC(C)C)C(=O)N[C@@H](CCSC)C(=O)N[C@H](C(=O)NCC(=O)NCC(=O)N[C@H](C(=O)N[C@H](C(=O)N[C@H](C(=O)N[C@@H](C)C(=O)n1c(=O)n(C)c2ccc(C(=O)N[C@@H](CCCNC(=N)N)C(=O)N[C@@H](CCCNC(=N)N)C(=O)N[C@@H](CCCNC(=N)N)C(=O)N[C@@H](CCCNC(=N)N)C(=O)N[C@@H](CCCNC(=N)N)C(=O)N[C@@H](CCCNC(=N)N)C(N)=O)cc21)[C@@H](C)CC)C(C)C)C(C)C)C(C)C)[C@@H](C)CC [Aβ42[27–42]-SynTag] (H-KGAIIGLMVGGVVI[X1]RRRRRR-NH2) | 
2 |  | Amyloid-β: biologically relevant peptide investigated for its role in Alzheimer’s disease | barely soluble
3 | elutes later than Aβ42[27–42]-MeNbz-Arg6 | KGAIIGLMVGGVVIA-NH2 [Aβ42[27–42]] | 
